Test results from PMC3163364, “Preformulation Studies of Zidovudine Derivatives: Acid Dissociation Constants, Differential Scanning Calorimetry, Thermogravimetry, X-Ray Powder Diffractometry and Aqueous Stability Studies” (Scientia Pharmaceutica, 2011).
Where two headings read alike, the source gives them in different places.

What was measured:
[1] = pKa determination by differential scanning potentiometry (DSP); format: physicochemical
Procedure: In the differential scanning potentiometry (DSP) methodology, acid and basic groups generate negative and positive areas, respectively. Thus, the NH acidic groups of AZT and thymidine were used as reference to validate the DSP, since their pKa values had been previously reported.
A conventional pH-meter (GLP 21, Crison Instrument) with an Ag/AgCl-reference electrode was used. NaOH was added at 0.1 mL increments, with its corresponding pH value recorded from the average of two sample determinations using DMSO as the cosolvent (2.5 %) at 25 °C. The areas were calculated using the Origin 7 program. For the reference graph, an aliquot of 10 mL of HCl (0.1 mol L^−1) and 0.5 mL of DMSO was titrated with NaOH (0.1 mol L^−1); for the sample graphs, aliquots (10 mL) of HCl (0.1 mol L^−1), 0.5 mL DMSO and 0.12 mmol for each compound were titrated with NaOH (0.1 mol L^−1). The volume of each solution was completed to 20 mL with Milli-Q water before titration.

[2] = Differential Scanning Calorimetry (DSC) and Thermogravimetry (TG); format: physicochemical; details: for DSC exothermic decomposition peak: accompanied by weight loss in TG, nitrogen atmosphere, 25–300 °C; for glass transition, small DSC endothermic peak (T onset): extrapolated onset temperature
Procedure: Compounds 2, 4, 5 and 6 also presented an exothermic decomposition peak above 150 °C, which is accompanied by a weight loss in the respective TG curves (Figure 3).
(§1) DSC measurements were carried out using a 2920 modulated DSC (TA Instrument). The temperature axis and the cell constant of the DSC were calibrated with indium. Weighed samples (1.5–3 mg, C-33 Microbalance, Cahan) were scanned in covered aluminium (Al) pans under a dynamic dry nitrogen atmosphere (50 mL min^−1) starting at 25 °C and raising the temperature in 5 °C steps until reaching 300 °C. TG measurements were performed with a TA Instrument Hi-res TG 2950 (TA Instrument). Samples (1.5–3 mg) were weighed in Al pans, starting at 25 °C and raising the temperature in 5 °C steps until reaching 300 °C, under a dynamic dry nitrogen atmosphere (50 mL min^−1). The Universal Analysis Version 2.5H software was used for both measurements. The XRPD patterns were determined at around 20 °C using a diffractometer (Miniflex 2000, Rigaku), with CuKα radiation (λ= 1.5418 Å) being obtained by Ni-filtration. Each sample was packed into an Al holder in the range of 5–50 (2Θ).

[3] = aqueous stability in buffers of different pH at 60 °C, HPLC; format: physicochemical; design: key to Aqueous stability: Stable: degradation products by HPLC were not observed after 80 h of experiment; Unstable: The determination was not possible due to a rapid decomposition; details: for half-life at 0.5 mM: aqueous buffer, read-out: t½
Source text: Table 2 lists the pH media, experimental rate constants (kobs, when it could be determined) and their corresponding half-life times (t½).
The aqueous stability of AZT and their derivatives 2–6 was examined at different pH values: pH 1.0 (hydrochloric acid-potassium chloride); pH 2.6 (citric acid-sodium phosphate monobasic); pH 7.4 (sodium phosphate dibasic); pH 9.4 (sodium hydrogen carbonate-sodium hydroxide) and pH 13.2 (potassium chloride-sodium hydroxide). The buffer concentrations were 0.1 mol L^−1 and the ionic strength (μ) of the buffers was adjusted to 0.1 with calculated amount of sodium chloride (NaCl). All buffer solutions were prepared with Milli Q water. The pH of each solution was determined using a GLP 21 (Crison Instruments) pHmeter. Stock solutions (5 × 10^−5 mol mL^−1) of each compound were prepared in DMSO prior to use, with 10 μL of the stock solution being added to 990 μL of buffer, and the vials placed in a water bath at 60 °C during all the experiment. Each vial was withdrawn at predetermined time intervals, and immediately stored at −18 °C until being used. For their analysis, the samples were left to defrost, and the aliquots of 100 μL were sampled and added to 400 μL of MeOH at 25 °C. Then, the solution was analyzed by HPLC to determine the rate of disappearance of each compound.
Samples were analyzed using an HPLC system Agilent® 1100 equipped with Phenomenex® column: Hypersil ODS 5 μ particle diameter (4.6 × 250 mm). Detection was carried out with an UV detector at λ = 267 nm, using the following three solvent systems as mobile phases with a flow rate of 1 mL min^−1 at 35 °C: A); 50% phosphate buffer (pH 7.5, 0.02 mol L^−1), 50% MeOH and 2% THF; B) 60% phosphate buffer (pH 7.5, 0.02 mol L^−1), 40% MeOH and 2% THF; and; C) 65% phosphate buffer (pH 7.5, 0.02 mol L^−1), 35% MeOH and 2% THF to obtain an adequate peak separation.

[4] = X-Ray Powder Diffractometry (XRPD); format: physicochemical; details: around 20 °C, CuKα radiation
Procedure: XRPD analysis provides an accurate identification of crystalline and amorphous solid phases. The XRPD patterns of AZT and their derivatives 2–6 are depicted in Figure 4.
as §1

[5] = cited from earlier work
HIV = test system: HIV; design: method as in earlier work; details: previous in vitro studies; cited from earlier work
[6] = design: method as in earlier work; details: cited from earlier work
[7] = design: method as in earlier work; details: cited from earlier work; remark: listed apart in the source
[8] = aqueous HCl solution with DMSO cosolvent, titrated with NaOH, DSP, DMSO 2.5 % cosolvent, 25 °C, calculated from area with eq. 2, read-out: pKa, aliphatic amine, experimental value
[9] = aqueous HCl solution with DMSO cosolvent, titrated with NaOH, DSP, DMSO 2.5 % cosolvent, 25 °C, calculated from area with eq. 2, read-out: pKa, NH group of the pyrimidinic base, experimental value

Cc1cn([C@H]2C[C@H](O)[C@@H](CO)O2)c(=O)[nH]c1=O [Thymidine, reference compound]
pKa ([1]; pKa, NH group of the pyrimidinic base, experimental value): 9.45

Cc1cn([C@H]2C[C@H](N=[N+]=[N-])[C@@H](COC(=O)NCCN3CCNCC3)O2)c(=O)[nH]c1=O [compound 6]
DSC exothermic decomposition peak [2]: above 150 °C | glass transition, small DSC endothermic peak (T onset) [2]: 42.5 °C | pKa [1, 8]: 9.03 | half-life at 0.5 mM ([3]; pH 13.2, 60 °C): 6.48 h | Aqueous stability ([3]; pH 1.0, 60 °C): Stable^a | Aqueous stability ([3]; pH 7.4, 60 °C): Stable^a | Aqueous stability ([3]; pH 9.4, 60 °C): Stable^a | Degradation rate constant, kobs ([3]; pH 13.2, 60 °C): 1.96 10^−3 min^−1 | kobs ([3]; pH 13.2, 60 °C): 0.00196 min⁻¹ | solid state by XRPD (crystalline or amorphous) [4]: amorphous

Cc1cn([C@H]2C[C@H](N=[N+]=[N-])[C@@H](CO)O2)c(=O)[nH]c1=O [compound 1, 3′-Azido-3′-deoxythymidine, reference compound]
pKa ([1]; DSP, DMSO 2.5 % cosolvent, 25 °C, calculated from area with eq. 2, read-out: pKa, NH group of the pyrimidinic base, experimental value): 9.42 | Aqueous stability ([3]; pH 1.0, 60 °C): Stable^a | aqueous stability over the studied pH media, in words ([3]; pH 1.0–13.2): stable at the studied pH media | Aqueous stability ([3]; pH 7.4, 60 °C): Stable^a | Aqueous stability ([3]; pH 9.4, 60 °C): Stable^a | Aqueous stability ([3]; pH 13.2, 60 °C): Stable^a | pKa, NH acidic group, previously reported experimental value [5]: 9.68

Cc1cn([C@H]2C[C@H](N=[N+]=[N-])[C@@H](COC(=O)N3CCCCC3)O2)c(=O)[nH]c1=O [compound 4]
DSC exothermic decomposition peak [2]: above 150 °C | pKa [1, 9]: 8.61 | half-life at 0.5 mM ([3]; pH 13.2, 60 °C): 11.2 h | Aqueous stability ([3]; pH 1.0, 60 °C): Stable^a | Aqueous stability ([3]; pH 7.4, 60 °C): Stable^a | Aqueous stability ([3]; pH 9.4, 60 °C): Stable^a | Degradation rate constant, kobs ([3]; pH 13.2, 60 °C): 1.04 10^−3 min^−1 | kobs ([3]; pH 13.2, 60 °C): 0.00104 min⁻¹

CC[C@H]1OC(=O)[C@H](C)[C@@H](O[C@H]2C[C@@](C)(OC)[C@@H](O)[C@H](C)O2)[C@H](C)[C@@H](O[C@@H]2O[C@H](C)C[C@H](N(C)C)[C@H]2O)[C@](C)(O)C[C@@H](C)C(=O)[C@H](C)[C@@H](O)[C@]1(C)O [erytromycine]
pKa of compounds used for regression of DSP area vs pKa (eq. 2) ([5]; reference values, source not given): 8.80

Cc1cn2c(nc1=O)OC[C@H]1O[C@@H]2C[C@@H]1N=[N+]=[N-] [compound 3]
DSC exothermic decomposition peak [2]: 215 °C | half-life at 0.5 mM ([3]; pH 1.0, 60 °C): 2.13 h | half-life at 0.5 mM ([3]; pH 7.4, 60 °C): 79.2 h | half-life at 0.5 mM ([3]; pH 9.4, 60 °C): 2.07 h | Degradation rate constant, kobs ([3]; pH 1.0, 60 °C): 5.43 10^−3 min^−1 | Degradation rate constant, kobs ([3]; pH 7.4, 60 °C): 0.15 10^−3 min^−1 | Degradation rate constant, kobs ([3]; pH 9.4, 60 °C): 5.58 10^−3 min^−1 | Aqueous stability ([3]; pH 13.2, 60 °C): Unstable^d | anti-HIV activity (HIV): anti-HIV activity | cytotoxicity [6]: no cytotoxicity | stability in rat plasma ([7]; 30 h of incubation at 37 °C): showed stability

Cc1ccc(S(=O)(=O)OC[C@H]2O[C@@H](n3cc(C)c(=O)[nH]c3=O)C[C@@H]2N=[N+]=[N-])cc1 [compound 2]
DSC exothermic decomposition peak [2]: above 150 °C | half-life at 0.5 mM ([3]; pH 7.4, 60 °C): 12.1 h | half-life at 0.5 mM ([3]; pH 9.4, 60 °C): 0.775 h | half-life at 0.5 mM ([3]; pH 13.2, 60 °C): 0.765 h | Aqueous stability ([3]; pH 1.0, 60 °C): Stable^a | Degradation rate constant, kobs ([3]; pH 7.4, 60 °C): 0.94 10^−3 min^−1 | Degradation rate constant, kobs ([3]; pH 9.4, 60 °C): 14.9 10^−3 min^−1 | Degradation rate constant, kobs ([3]; pH 13.2, 60 °C): 15.1 10^−3 min^−1 | anti-HIV activity (HIV): lacked the necessary activity | stability in rat plasma [7]: stable

Cc1cn([C@H]2C[C@H](N=[N+]=[N-])[C@@H](COC(=O)N3CCNCC3)O2)c(=O)[nH]c1=O [compound 5]
DSC exothermic decomposition peak [2]: above 150 °C | glass transition, small DSC endothermic peak (T onset) [2]: 35.1 °C | pKa [1, 9]: 8.66 | pKa [1, 8]: 6.52 | half-life at 0.5 mM ([3]; pH 13.2, 60 °C): 3.97 h | Aqueous stability ([3]; pH 1.0, 60 °C): Stable^a | Aqueous stability ([3]; pH 7.4, 60 °C): Stable^a | Aqueous stability ([3]; pH 9.4, 60 °C): Stable^a | kobs ([3]; pH 13.2, 60 °C): 0.00323 min⁻¹ | solid state by XRPD (crystalline or amorphous) [4]: amorphous
